From patent US20070043003A1, “Novel compounds for the prophylaxis and treatment of inflammatory bowel diseases” (Hikma Pharmaceuticals Co., Ltd., priority 2005, published 2007)
Values joined by “and” are separate entries in the source; they are usually repeats but may differ in a detail not shown here. Equal entries are not always repeated.

Experiments:
[1] = system: TNB (trinitrobenzenesulfonic acid)-induced ulcerative colitis; experiment: Rats with TNB-induced ulcerative colitis, macroscopic and microscopic examination of intestine, colon and cecum; format: in vivo, rat; parameters: key to Overall degree of inflammation / Mucosal inflammation and ulceration / Submucosal inflammation / Full thickness inflammation: − = No inflammation (normal); ± = Very minimal mucosal inflammation; + = Mild; +2 = Moderate; +3 = Severe; details: for Full thickness inflammation / Mucosal inflammation and ulceration / Overall degree of inflammation / Submucosal inflammation: one rat per row; for activity against intestinal bowel disease: compared to the known compound 5ASA
Protocol: Rats with TNB (trinitrobenzenesulfonic acid)-induced ulcerative colitis were used as an animal model. 28 rats were randomly grouped (A, B, C1, C2, D1 and D2). Group A is used as positive control and each of the other three groups received a predetermined dose of compounds under testing (see Table 3). Animals were fasted for one night before taking the TNB solution. All animals received a solution (0.25 ml) of TNB in methylcelullose solution (50% methylcellulose in absolute ethanol) containing 20 mg of TNB. The TNB solution was administered by intracolonic administration using a syringe and rubber canula. The canula was inserted into the lumen of the colon via the anus. The cannula was advanced so that its tip was 8 cm from the anus. […] Group A took 0.5 ml of the suspension containing 2.5 mg of methylcellulose solution twice daily. • 2. […] The treatments were given for eight days, and on the 9th day the animals were sacrificed and opened along their abdomen for evaluation. The animals were subjected to the following testing • 1. Physical testing, as looking at the weight, […], general health, etc. • 2. Looking at the intestine before opening, colouration, thickness, etc. 3. Dissecting the intestine the colon and the cecum and examining them macroscopically and microscopically.

[2] = upon oral administration; cited from earlier work
[3] = Group C-1: 18 mg compound 9 orally twice daily for eight days
[4] = Group C-2: 28 mg compound 9 orally twice daily for eight days
[5] = Group B: 5 mg 5ASA orally twice daily for eight days
[6] = Group D-1: 12 mg compound 5 orally twice daily for eight days
[7] = Group D-2: 18 mg compound 5 orally twice daily for eight days

O=C(O)Cc1ccc2oc(-c3ccc(N=Nc4ccc(O)c(C(=O)O)c4)cc3)nc2c1 [compound 9, 2-Hydroxy-5-[4-(benzoxazol-2-yl-5-acetic acid)phenylazo]benzoic acid]
Full thickness inflammation [1, 3]: − | Mucosal inflammation and ulceration [1, 3]: − and + (5×) | Overall degree of inflammation [1, 3]: − and ± (3×) and +1 (2×) | Submucosal inflammation [1, 3]: − (3×) and ± and + (2×) | Full thickness inflammation [1, 4]: − | Mucosal inflammation and ulceration [1, 4]: + | Overall degree of inflammation [1, 4]: ± (2×) and +1 | Submucosal inflammation [1, 4]: ± (2×) and + | activity against intestinal bowel disease [1]: significantly higher activity

Nc1ccc(O)c(C(=O)O)c1 [5ASA, 5-aminosalicylic acid, reference compound]
Full thickness inflammation [1, 5]: + | Mucosal inflammation and ulceration [1, 5]: + | Overall degree of inflammation [1, 5]: +2 (4×) and +3 and +1 | Submucosal inflammation [1, 5]: +

Nc1ccc(-c2nc3cc(CC(=O)O)ccc3o2)cc1 [compound 5, 4-aminophenylbenzoxazole-5-acetic acid]
Full thickness inflammation [1, 6]: + (3×) and − (2×) | Mucosal inflammation and ulceration [1, 6]: + (4×) and − | Overall degree of inflammation [1, 6]: +1 (3×) and ± and − | Submucosal inflammation [1, 6]: + (3×) and − (2×) | Full thickness inflammation [1, 7]: − | Mucosal inflammation and ulceration [1, 7]: + | Overall degree of inflammation [1, 7]: +1 | Submucosal inflammation [1, 7]: + | activity against intestinal bowel disease [1]: significantly higher activity

O=C(O)c1cc(N=Nc2ccc(S(=O)(=O)Nc3ccccn3)cc2)ccc1O [SS, 2-Hydroxy-5-[4-(2-pyridylsulfamoyl)phenylazo]benzoic acid]
fraction of a given dose absorbed from the small intestine [2]: about one-third
